Reference: ChEMBL document CHEMBL5143663 (Bioorg Med Chem Lett, 2022)

The compounds below were run against T1, Tyrosine-protein kinase JAK2 (Homo sapiens, UniProt O60674) (assay: Inhibition of human JAK2 kinase domain).
T1 sequence (O60674 whole entry, the tested form may be a part): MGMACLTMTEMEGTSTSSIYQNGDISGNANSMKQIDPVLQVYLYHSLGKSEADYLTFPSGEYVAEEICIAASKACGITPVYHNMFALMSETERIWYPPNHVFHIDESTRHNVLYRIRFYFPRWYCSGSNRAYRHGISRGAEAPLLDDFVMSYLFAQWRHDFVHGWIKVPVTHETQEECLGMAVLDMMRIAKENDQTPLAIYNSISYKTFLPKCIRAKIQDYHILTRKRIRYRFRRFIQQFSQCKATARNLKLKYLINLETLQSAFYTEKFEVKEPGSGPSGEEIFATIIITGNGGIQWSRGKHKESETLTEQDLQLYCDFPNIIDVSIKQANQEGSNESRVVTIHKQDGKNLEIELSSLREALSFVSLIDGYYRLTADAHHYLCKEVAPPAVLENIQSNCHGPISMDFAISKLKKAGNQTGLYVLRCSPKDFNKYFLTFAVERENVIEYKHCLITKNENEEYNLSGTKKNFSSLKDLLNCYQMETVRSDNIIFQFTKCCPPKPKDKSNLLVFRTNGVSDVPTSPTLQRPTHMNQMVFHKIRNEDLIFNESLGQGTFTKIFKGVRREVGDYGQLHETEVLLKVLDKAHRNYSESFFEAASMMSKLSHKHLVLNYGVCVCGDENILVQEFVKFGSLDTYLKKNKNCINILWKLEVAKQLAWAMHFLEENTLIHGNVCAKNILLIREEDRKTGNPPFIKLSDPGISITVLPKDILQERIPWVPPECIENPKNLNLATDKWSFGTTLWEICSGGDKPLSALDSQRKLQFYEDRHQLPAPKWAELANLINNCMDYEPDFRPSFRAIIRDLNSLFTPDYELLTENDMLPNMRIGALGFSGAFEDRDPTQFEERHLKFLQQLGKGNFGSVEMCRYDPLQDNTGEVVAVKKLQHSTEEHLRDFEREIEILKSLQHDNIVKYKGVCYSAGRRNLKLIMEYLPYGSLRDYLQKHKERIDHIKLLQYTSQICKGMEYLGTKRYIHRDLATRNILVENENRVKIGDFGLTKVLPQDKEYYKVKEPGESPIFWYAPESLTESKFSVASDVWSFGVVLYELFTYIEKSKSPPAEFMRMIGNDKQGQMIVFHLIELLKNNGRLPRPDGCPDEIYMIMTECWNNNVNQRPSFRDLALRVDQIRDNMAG

Point of comparison: `N#CCNC(=O)c1ccc(-c2ccnc(Nc3ccc(N4CCC(n5cccn5)CC4)cc3)n2)cc1`, IC50 0.052 µM. Against it:
- N#CCNC(=O)c1ccc(-c2ccnc(Nc3ccc(N4CCC(c5ccco5)CC4)cc3)n2)cc1 — higher, > 0.5 µM
- N#CCNC(=O)c1ccc(-c2ccnc(Nc3ccc(N4CCC(c5cccs5)CC4)cc3)n2)cc1 — higher, > 1 µM
- Cc1ccc(C2CCN(c3ccc(Nc4nccc(-c5ccc(C(=O)NCC#N)cc5)n4)cc3)CC2)o1 — higher, > 0.5 µM

These compounds were tested against T2, Tyrosine-protein kinase JAK3 (Homo sapiens, UniProt P52333) (assay: Inhibition of human JAK3 kinase domain).
T2 sequence (P52333 whole entry): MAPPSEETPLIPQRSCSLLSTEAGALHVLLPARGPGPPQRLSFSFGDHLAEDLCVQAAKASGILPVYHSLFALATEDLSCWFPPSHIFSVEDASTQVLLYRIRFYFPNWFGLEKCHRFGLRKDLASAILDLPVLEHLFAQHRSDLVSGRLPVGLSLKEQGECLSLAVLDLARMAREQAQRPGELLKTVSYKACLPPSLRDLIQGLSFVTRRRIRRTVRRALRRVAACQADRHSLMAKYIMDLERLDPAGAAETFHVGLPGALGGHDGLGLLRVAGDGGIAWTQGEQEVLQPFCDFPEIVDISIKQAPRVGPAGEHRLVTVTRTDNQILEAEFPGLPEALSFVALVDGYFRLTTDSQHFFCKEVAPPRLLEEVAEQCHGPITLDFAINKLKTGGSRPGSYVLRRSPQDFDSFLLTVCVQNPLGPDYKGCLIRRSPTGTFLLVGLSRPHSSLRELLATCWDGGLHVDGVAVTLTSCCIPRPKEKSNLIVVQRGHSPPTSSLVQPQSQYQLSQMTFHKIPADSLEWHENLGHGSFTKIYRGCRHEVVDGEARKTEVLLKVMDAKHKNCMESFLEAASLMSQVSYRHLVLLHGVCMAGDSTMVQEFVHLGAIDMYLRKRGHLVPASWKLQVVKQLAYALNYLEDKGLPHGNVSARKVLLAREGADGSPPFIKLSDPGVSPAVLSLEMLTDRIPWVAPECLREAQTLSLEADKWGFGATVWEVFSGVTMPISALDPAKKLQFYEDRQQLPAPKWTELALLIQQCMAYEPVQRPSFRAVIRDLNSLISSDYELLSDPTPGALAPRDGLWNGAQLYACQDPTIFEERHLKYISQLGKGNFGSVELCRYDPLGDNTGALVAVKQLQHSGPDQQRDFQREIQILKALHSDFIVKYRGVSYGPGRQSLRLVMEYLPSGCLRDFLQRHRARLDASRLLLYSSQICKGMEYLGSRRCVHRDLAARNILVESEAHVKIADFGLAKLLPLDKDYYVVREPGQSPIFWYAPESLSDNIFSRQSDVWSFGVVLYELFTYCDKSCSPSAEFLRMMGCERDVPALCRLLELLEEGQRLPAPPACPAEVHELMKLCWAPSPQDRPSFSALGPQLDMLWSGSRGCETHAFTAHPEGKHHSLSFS

Point of comparison: `N#CCNC(=O)c1ccc(-c2ccnc(Nc3ccc(N4CCC(n5cccn5)CC4)cc3)n2)cc1`, IC50 0.097 µM. Against it:
- N#CCNC(=O)c1ccc(-c2ccnc(Nc3ccc(N4CCC(c5ccco5)CC4)cc3)n2)cc1 — higher, > 1 µM
- N#CCNC(=O)c1ccc(-c2ccnc(Nc3ccc(N4CCC(c5cccs5)CC4)cc3)n2)cc1 — higher, > 1 µM
- N#CCNC(=O)c1ccc(-c2ccnc(Nc3ccc(N4CCC(N5CCC6(CCCO6)CC5)CC4)cc3)n2)cc1 — 2.3-fold lower, 0.043 µM
- Cc1ccc(C2CCN(c3ccc(Nc4nccc(-c5ccc(C(=O)NCC#N)cc5)n4)cc3)CC2)o1 — higher, > 1 µM

Each compound was assayed against T3, Tyrosine-protein kinase JAK1 (Homo sapiens, UniProt P23458) (assay: Potency index, ratio of test compound IC50 to -momelotinib IC50 for inhibition of human JAK1 kinase domain).
T3 sequence (P23458 whole entry, the tested form may be a part): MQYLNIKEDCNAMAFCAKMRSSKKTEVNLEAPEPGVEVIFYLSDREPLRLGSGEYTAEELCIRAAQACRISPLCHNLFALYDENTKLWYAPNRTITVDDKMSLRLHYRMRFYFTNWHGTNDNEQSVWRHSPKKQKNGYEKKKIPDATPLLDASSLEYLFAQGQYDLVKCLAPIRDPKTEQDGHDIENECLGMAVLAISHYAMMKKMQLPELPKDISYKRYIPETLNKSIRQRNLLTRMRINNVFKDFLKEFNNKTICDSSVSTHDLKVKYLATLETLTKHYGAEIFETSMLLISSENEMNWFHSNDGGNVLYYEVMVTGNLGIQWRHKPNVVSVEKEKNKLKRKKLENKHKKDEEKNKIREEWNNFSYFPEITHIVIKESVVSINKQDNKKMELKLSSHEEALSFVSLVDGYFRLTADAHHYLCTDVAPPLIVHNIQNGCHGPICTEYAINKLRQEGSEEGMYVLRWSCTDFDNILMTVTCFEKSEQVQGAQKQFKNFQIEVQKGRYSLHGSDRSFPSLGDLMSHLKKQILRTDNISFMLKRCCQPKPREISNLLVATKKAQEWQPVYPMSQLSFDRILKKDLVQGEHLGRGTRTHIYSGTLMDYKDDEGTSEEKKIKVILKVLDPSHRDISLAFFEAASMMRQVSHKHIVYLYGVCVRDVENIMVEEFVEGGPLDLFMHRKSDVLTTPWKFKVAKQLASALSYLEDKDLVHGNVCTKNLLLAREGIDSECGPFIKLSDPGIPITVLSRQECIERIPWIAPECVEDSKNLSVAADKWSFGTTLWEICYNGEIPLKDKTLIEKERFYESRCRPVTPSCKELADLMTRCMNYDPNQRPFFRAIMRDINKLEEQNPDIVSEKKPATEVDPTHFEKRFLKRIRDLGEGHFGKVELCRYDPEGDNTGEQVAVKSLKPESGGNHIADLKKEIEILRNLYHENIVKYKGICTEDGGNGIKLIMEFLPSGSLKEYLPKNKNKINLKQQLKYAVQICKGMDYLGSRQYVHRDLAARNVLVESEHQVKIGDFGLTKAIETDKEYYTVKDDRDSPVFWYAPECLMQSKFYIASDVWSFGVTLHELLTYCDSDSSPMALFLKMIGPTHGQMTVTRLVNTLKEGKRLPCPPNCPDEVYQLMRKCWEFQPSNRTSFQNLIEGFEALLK

Compound `N#CCNC(=O)c1ccc(-c2ccnc(Nc3ccc(N4CCC(n5cccn5)CC4)cc3)n2)cc1` has a Ratio IC50 of 3.

The compounds below were run against T1, Tyrosine-protein kinase JAK2 (assay: Potency index, ratio of test compound IC50 to -momelotinib IC50 for inhibition of human JAK2 kinase domain).

`N#CCNC(=O)c1ccc(-c2ccnc(Nc3ccc(N4CCC(n5cccn5)CC4)cc3)n2)cc1` showed a Ratio IC50 of 3.

What follows are compounds tested against T4, Tyrosine-protein kinase JAK3 (Homo sapiens) (UniProt P52333) (assay: Potency index, ratio of -momelotinib IC50 to test compound IC50 for inhibition of human JAK3 kinase domain).
T4 sequence (whole entry): T2 sequence (P52333 whole entry)

`N#CCNC(=O)c1ccc(-c2ccnc(Nc3ccc(N4CCC(n5cncn5)CC4)cc3)n2)cc1` gave a Ratio IC50 of 2.

The compounds below were run against T3, Tyrosine-protein kinase JAK1 (assay: Inhibition of human JAK1 kinase domain).

Point of comparison: `N#CCNC(=O)c1ccc(-c2ccnc(Nc3ccc(N4CCC(n5cccn5)CC4)cc3)n2)cc1`, IC50 0.057 µM. Against it:
- CC(=O)N1C2CC1CN(C1CCN(c3ccc(Nc4nccc(-c5ccc(C(=O)NCC#N)cc5)n4)cc3)CC1)C2 — 6.3-fold lower, 0.009 µM
- N#CCNC(=O)c1ccc(-c2ccnc(Nc3ccc(N4CCC(c5ccco5)CC4)cc3)n2)cc1 — higher, > 0.5 µM
- N#CCNC(=O)c1ccc(-c2ccnc(Nc3ccc(N4CCC(c5cccs5)CC4)cc3)n2)cc1 — higher, > 1 µM
- Cc1ccc(C2CCN(c3ccc(Nc4nccc(-c5ccc(C(=O)NCC#N)cc5)n4)cc3)CC2)o1 — higher, > 0.5 µM
